Experimental data published in the CheMixHub viscosity set.

Assay: xn = mol fraction of the nth substance listed
Settings: 101 kPa

CC(=O)c1ccc(C)cc1 + CC#N
308.15 K
Settings	viscosity [mPa·s]
x1 = 0.0872	0.3857
x1 = 0.1449	0.4411
x1 = 0.2088	0.5094
x1 = 0.2823	0.5871
x1 = 0.3756	0.6989
x1 = 0.4771	0.826
x1 = 0.6125	1.001
x1 = 0.7811	1.235
x1 = 0.9146	1.454

COc1ccc2cc([C@H](C)C(=O)O)ccc2c1 + CC#N
Settings	viscosity [mPa·s]
297.93 K, x1 = 0.000702	0.3571
297.96 K, x1 = 0.000233	0.3546
298.01 K, x1 = 0.001151	0.3583
298.04 K, x1 = 0.001587	0.3603
298.07 K, x1 = 0.002732	0.364
301.61 K, x1 = 0.001151	0.3461
301.69 K, x1 = 0.000233	0.3425
301.69 K, x1 = 0.001587	0.3476
301.7 K, x1 = 0.000702	0.344
301.75 K, x1 = 0.002732	0.351
303.56 K, x1 = 0.001151	0.3398
303.58 K, x1 = 0.002732	0.3453
303.65 K, x1 = 0.000233	0.3359
303.66 K, x1 = 0.001587	0.342
303.69 K, x1 = 0.000702	0.3371
305.66 K, x1 = 0.000233	0.3303
305.66 K, x1 = 0.001151	0.3329
305.7 K, x1 = 0.002732	0.3376
305.71 K, x1 = 0.000702	0.331
305.71 K, x1 = 0.001587	0.3347
308.62 K, x1 = 0.001151	0.324
308.64 K, x1 = 0.001587	0.3252
308.71 K, x1 = 0.000233	0.3206
308.75 K, x1 = 0.002732	0.3279
308.76 K, x1 = 0.000702	0.322
311.62 K, x1 = 0.001151	0.3149
311.63 K, x1 = 0.001587	0.3163
311.68 K, x1 = 0.002732	0.3191
311.69 K, x1 = 0.000233	0.3119
311.72 K, x1 = 0.000702	0.3132

C[N+](=O)[O-] + CC#N
Settings	viscosity [mPa·s]
298.15 K, x1 = 0.107	0.3665
298.15 K, x1 = 0.206	0.389
298.15 K, x1 = 0.301	0.4121
298.15 K, x1 = 0.398	0.4366
298.15 K, x1 = 0.502	0.4646
298.15 K, x1 = 0.598	0.4917
298.15 K, x1 = 0.7	0.5223
298.15 K, x1 = 0.792	0.5508
298.15 K, x1 = 0.895	0.5844
298.15 K, x2 = 0.1433	0.569
298.15 K, x2 = 0.3891	0.495
298.15 K, x2 = 0.39	0.496
298.15 K, x2 = 0.403	0.492
298.15 K, x2 = 0.408	0.49
298.15 K, x2 = 0.598	0.439
298.15 K, x2 = 0.698	0.413
298.15 K, x2 = 0.729	0.405
298.15 K, x2 = 0.739	0.403
298.15 K, x2 = 0.776	0.395
298.15 K, x2 = 0.9346	0.359
308.15 K, x2 = 0.1433	0.52
308.15 K, x2 = 0.3891	0.454
308.15 K, x2 = 0.598	0.404
308.15 K, x2 = 0.776	0.364
308.15 K, x2 = 0.9346	0.333
313.15 K, x1 = 0.107	0.3169
313.15 K, x1 = 0.206	0.3355
313.15 K, x1 = 0.301	0.3546
313.15 K, x1 = 0.398	0.3751
313.15 K, x1 = 0.502	0.3985
313.15 K, x1 = 0.598	0.4211
313.15 K, x1 = 0.7	0.4465
313.15 K, x1 = 0.792	0.4697
313.15 K, x1 = 0.895	0.4974
318.15 K, x2 = 0.1433	0.469
318.15 K, x2 = 0.3891	0.411
318.15 K, x2 = 0.598	0.367
318.15 K, x2 = 0.776	0.333
318.15 K, x2 = 0.9346	0.305

CCCCC(CC)COP(=O)(O)OCC(CC)CCCC (stereo not drawn) + CC(=O)O
303.15 K
Settings	viscosity [mPa·s]
x1 = 0.0796	1.574
x1 = 0.1382	2.292
x1 = 0.2186	3.386
x1 = 0.3103	4.872
x1 = 0.3968	6.604
x1 = 0.4788	8.198
x1 = 0.5297	9.118
x1 = 0.6234	11.09
x1 = 0.6891	12.58
x1 = 0.7384	13.67
x1 = 0.8068	15.2
x1 = 0.8905	16.88
x1 = 0.9592	18.49

Cc1cccc(O)c1 + CC(=O)O
viscosity [mPa·s]
Settings	x2 = 0.1684	x2 = 0.313	x2 = 0.4385	x2 = 0.5485	x2 = 0.6457	x2 = 0.7321	x2 = 0.8096	x2 = 0.8794	x2 = 0.9425
298.15 K	8.835	6.522	5.086	4.131	3.438	2.895	2.425	1.996	1.602
308.15 K	5.453	4.462	3.486	3.298	2.87	2.483	2.143	1.811	1.437
318.15 K	4.444	3.818	3.302	2.942	2.618	2.31	1.945	1.625	1.22
